Source: PubChem BioAssay AID330 (DTP/NCI, 2004)
Values joined by “and” are separate entries in the source; they are usually repeats but may differ in a detail not shown here. Identical values can stand only once. Toxic doses and inconclusive results are not listed. The calls were made as follows: active = survival T/C of 150% or more; inactive = T/C below 125% in these data.

Test system: P388 leukemia ip, CD2F1 mice, survival T/C
Assay: NCI In Vivo Anticancer Drug Screen. Data for tumor model P388 Leukemia (intraperitoneal) in CD2F1 (CDF1) mice
Details: endpoint: median survival time, higher = longer survival
Procedure, shortened: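 Mice carrying the transplanted tumor received test compound or vehicle. Survival was recorded in each group, and the value is the treated-group measurement divided by that of the vehicle-treated control group.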

[1] = dose: 50.0 mg/kg/injection, schedule: Q01DX005 (ip), vehicle: Klucel (hydroxypropylcellulose) (HPC)
[2] = dose: 100.0 mg/kg/injection, schedule: Q01DX005 (ip), vehicle: Klucel (hydroxypropylcellulose) (HPC)
[3] = dose: 200.0 mg/kg/injection, schedule: Q01DX005 (ip), vehicle: Klucel (hydroxypropylcellulose) (HPC)
[4] = dose: 50.0 mg/kg/injection, schedule: Q01DX009 (ip), vehicle: Klucel (hydroxypropylcellulose) (HPC)
[5] = dose: 100.0 mg/kg/injection, schedule: Q01DX009 (ip), vehicle: Klucel (hydroxypropylcellulose) (HPC)
[6] = dose: 200.0 mg/kg/injection, schedule: Q01DX009 (ip), vehicle: Klucel (hydroxypropylcellulose) (HPC)
[7] = dose: 50.0 mg/kg/injection, schedule: Q01DX009 (ip), vehicle: saline with Tween-80
[8] = dose: 100.0 mg/kg/injection, schedule: Q01DX009 (ip), vehicle: saline with Tween-80
[9] = dose: 50.0 mg/kg/injection, schedule: Q01DX005 (ip), vehicle: saline with Tween-80
[10] = dose: 200.0 mg/kg/injection, schedule: Q01DX005 (ip), vehicle: saline with Tween-80
[11] = dose: 60.0 mg/kg/injection, schedule: Q01DX005 (ip), vehicle: saline with Tween-80
[12] = dose: 120.0 mg/kg/injection, schedule: Q01DX005 (ip), vehicle: saline with Tween-80
[13] = dose: 240.0 mg/kg/injection, schedule: Q01DX005 (ip), vehicle: saline with Tween-80

Measured: T/C

CC1(C)CC(=O)C(C(c2ccccc2O)C2C(=O)CC(C)(C)CC2=O)C(=O)C1
inactive: [1] 102 % of control | [2] 102 % of control | [3] 102 % of control

C1CSCCSCCSCCSCCSCCS1
inactive: [4] 96 % of control | [5] 102 % of control | [6] 96 % of control

Oc1cc2c(cc1O)C(c1ccccc1)CNCC2 (stereo unspecified)
inactive: dose: 25.0 mg/kg/injection, schedule: Q01DX009 (ip), vehicle: saline with Tween-80 103 % of control | [7] 97 % of control | [8] 104 % of control

COc1ccc(/C=N/NC(=O)CNC(=O)n2ccnc2)cc1
inactive: [9] 100 % of control | dose: 100.0 mg/kg/injection, schedule: Q01DX005 (ip), vehicle: saline with Tween-80 92 % of control | [10] 91 % of control

C[C@]12CC[C@H](O)C[C@@H]1CC[C@@H]1[C@@H]2CC[C@]2(C)c3nc4ccccc4c(C(=O)O)c3C[C@@H]12
inactive: dose: 12.5 mg/kg/injection, schedule: Q01DX005 (ip), vehicle: saline with Tween-80 101 % of control | dose: 25.0 mg/kg/injection, schedule: Q01DX005 (ip), vehicle: saline with Tween-80 100 % of control | [9] 86 % of control and 94 % of control | [10] 93 % of control

COC(=O)C1=[N+]([O-])[N+]([O-])=C(C(=O)OC)C1=O
inactive: dose: 12.5 mg/kg/injection, schedule: Q01DX009 (ip), vehicle: Klucel (hydroxypropylcellulose) (HPC) 95 % of control | dose: 25.0 mg/kg/injection, schedule: Q01DX009 (ip), vehicle: Klucel (hydroxypropylcellulose) (HPC) 94 % of control

COC(=O)C1(C(C(=O)c2ccccc2)c2ccccc2)NC(=S)NC(=O)C1C#N (stereo unspecified)
inactive: [11] 100 % of control | [12] 105 % of control | [13] 100 % of control

NC1CNC(C(=O)O)=C(CC(=O)O)C1=O (stereo unspecified)
inactive: dose: 4.25 mg/kg/injection, schedule: Q01DX005 (ip), vehicle: sodium bicarbonate 101 % of control | dose: 8.5 mg/kg/injection, schedule: Q01DX005 (ip), vehicle: sodium bicarbonate 99 % of control | dose: 17.0 mg/kg/injection, schedule: Q01DX005 (ip), vehicle: sodium bicarbonate 106 % of control | dose: 34.0 mg/kg/injection, schedule: Q01DX005 (ip), vehicle: sodium bicarbonate 99 % of control

CC[CH2][Sn]([CH2]CC)([CH2]CC)[CH2]CCBr
inactive: [7] 106 % of control | [8] 100 % of control

O=C1C2=C(Nc3ccccc3N2)OC1c1ccc2c(c1)OCO2 (stereo unspecified)
inactive: dose: 60.0 mg/kg/injection, schedule: Q01DX005 (ip), vehicle: Klucel (hydroxypropylcellulose) (HPC) 100 % of control | dose: 120.0 mg/kg/injection, schedule: Q01DX005 (ip), vehicle: Klucel (hydroxypropylcellulose) (HPC) 86 % of control | dose: 240.0 mg/kg/injection, schedule: Q01DX005 (ip), vehicle: Klucel (hydroxypropylcellulose) (HPC) 89 % of control

COC(=O)/C=C1\CC(C)C2=C(N1)SCC2=O (stereo unspecified)
inactive: [1] 105 % of control | [2] 105 % of control | [3] 100 % of control

COC12CC(=O)C(C(C)=O)=C(O)C1(C)c1c(OC(C)=O)c(C)c(O)c(C(C)=O)c1O2 (stereo unspecified)
inactive: dose: 25.0 mg/kg/injection, schedule: Q01DX009 (ip), vehicle: gum acacia 106 % of control | dose: 50.0 mg/kg/injection, schedule: Q01DX009 (ip), vehicle: gum acacia 99 % of control and 104 % of control and 114 % of control | dose: 100.0 mg/kg/injection, schedule: Q01DX009 (ip), vehicle: gum acacia 124 % of control

O=C1C=C(Nc2ccccc2C(=O)O)C(=O)C=C1Nc1ccccc1C(=O)O
inactive: [4] 107 % of control | [5] 110 % of control | [6] 113 % of control

COC(=O)[C@@H]1[C@H]2CC(C)(C)C[C@H]2C2=CCC[C@@H]21
inactive: dose: 18.5 mg/kg/injection, schedule: Q01DX005 (ip), vehicle: suspension in saline 96 % of control | dose: 37.0 mg/kg/injection, schedule: Q01DX005 (ip), vehicle: suspension in saline 98 % of control | dose: 74.0 mg/kg/injection, schedule: Q01DX005 (ip), vehicle: suspension in saline 98 % of control

CC(C)c1nnc2cc3c(cc2c1N)oc1ccccc13
inactive: dose: 100.0 mg/kg/injection, schedule: Q04DX002 (ip), vehicle: saline with Tween-80 87 % of control | dose: 200.0 mg/kg/injection, schedule: Q04DX002 (ip), vehicle: saline with Tween-80 92 % of control | dose: 400.0 mg/kg/injection, schedule: Q04DX002 (ip), vehicle: saline with Tween-80 87 % of control

O=C1Nc2cnc(Cl)nc2Nc2cc(Cl)ccc21
inactive: [1] 95 % of control | [2] 95 % of control | [3] 92 % of control

CC1Cn2c(Cc3ccccc3)nnc2S1 (stereo unspecified)
inactive: [11] 104 % of control | [12] 93 % of control | [13] 100 % of control
